Data on one compound can be found in patent publication US8609718B2, “Pharmaceutical composition used in treatment of hyperproliferative skin conditions and malignant melanomas comprising pachastrissamine as active ingredient” (Catholic University Industry Academy Cooperation Foundation, priority 2009, dated 2013).

The subject of series [1] is malignant melanoma cell line B16F10. Briefly: Mouse malignant melanoma (B16F10) lung metastasis model. In kind it is in vivo. Conditions: C57BL6 mouse, B16F10 1×10^6 via tail vein; inoculated once per 4 days (three times); lung on 14th day; FIG. 6. How it is done: In a C57BL6 mouse, pachastrissamine's effect on malignant melanoma metastasis inhibition was researched. A mouse (aged 6 weeks) was inoculated with a malignant melanoma cell line B16F10 (1×10^6) through a tail vein. After 24 hours from the inoculation, pachastrissamine was inoculated, and also, in a control group, PBS was inoculated in the same amount. Pachastrissamine was inoculated once per 4 days (three times), and on the 14th day from the inoculation of cells, the mouse was dissected to extract the lung. The extracted lung was immersed in 4% formalin solution for 16 hours or more, and washed for 16 hours or more. After the washing, the extracted lung was photographed, and other tissues were embedded in paraffin to make a block. Then, a tissue slice with a thickness of […] was prepared. The tissue slice was subjected to a deparaffin process for H&E (Hematoxylin & Eosin) staining, and then sequentially reacted with 100%, 90%, 80%, 70%, and 60% alcohol solutions to complete the hydration reaction. The completely hydrated slice was subjected to H&E staining, and then reacted with the alcohol solutions in reverse order of the hydration reaction to perform a dehydration reaction. When the dehydration reaction was completed, the slice was fixed on a slide and observed by a microscope.

Another series relates to ERK and FoxO3a. Briefly: Immunoprecipitation of ERK, binding between ERK and FoxO3a. In kind it is cell-based, human. The settings on record: HaCaT; 10 μg/ml; 24 hours; anti-ERK immunoprecipitation; FIG. 4F. The procedure: In the same manner, a HaCaT cell line was treated with pachastrissamine, and immunoprecipitation was used to determine the degree of binding between ERK and FoxO3a, and the degree of FoxO3a ubiquitination caused by interaction. In order to carry out immunoprecipitation, the cells were plated on a 100 mm plate, and cultured in a CO2 incubator (37° C., 5%) for 24 hours. After about 12 hours of serum starvation, the cultured cell line was treated with 10 μg/ml of pachastrissamine for 24 hours. The cell line treated with pachastrissamine and another cell line not treated with pachastrissamine were resuspended in the RIPA buffer as described above, and then put on ice for 30 minutes so that the cells could be completely lysed. The lysate was centrifuged at 14000 rpm for 30 minutes, and the supernatant was collected. A BCA protein analysis kit (Pierce, Rockford, Ill.) was used to determine the concentration of each sample, and the samples in the same amount were added with anti-ERK antibody in the same amount, and reacted at 4° C. for 2 hours. Then, each of the samples was added with 10 μl of protein G-agarose (GenDEPOT) and reacted at 4° C. for 10 hours, and then centrifuged at 3000 rpm for 1 minute, washed with RIPA buffer, and centrifuged again. Then, the precipitated protein G-agarose was collected, and electrophoresis was carried out.

A further series deals with MEK. Briefly: Western blotting of MEK activity (caMEK or N-Ras/H-Ras over-expression) in HaCaT. Type of series: cell-based, human. The settings on record: HaCaT with caMEK or N-Ras/H-Ras over-expression; FIGS. 3E, 3F. How it is done:
In the same manner, MEK(caMEK) continuously activated in the HaCaT cell line was over-expressed so as to activate ERK in a lower signaling pathway of MEK. The HaCaT cell line whose ERK was activated by MEK was treated with pachastrissamine and U0126 and PD98059 (ERK inhibitors). Then, western blotting was carried out using anti-pMEK, anti-MEK, anti-pEKR, anti-EKR, and anti-actin antibodies so as to carry out comparative analysis (see FIG. 3E).
Further, in the same manner, two DNAs of N-Ras and H-Ras, in a previous step of MEK/ERK signal transduction, were over-expressed through transfection while a HaCaT cell line was cultured. Then, after treatment with pachastrissamine and phytosphingosine, western blotting was carried out using anti-pMEK, and anti-MEK antibodies so as to carry out comparative analysis of MEK activity (see FIG. 3F).

Series [2] has as its system malignant melanoma cell line A375. Briefly: MTT cell viability analysis (cytotoxicity), A375. In kind it is cell-based. The settings on record: 24 hours, FIG. 1. How it is done: Pachastrissamine's cytotoxicity on a HaCaT cell line and a malignant melanoma cell line was researched through MTT cell viability analysis.
First, each of a HaCaT cell line (German Cancer Research, obtained from prof. N. Fuseni, Germany), and two kinds of malignant melanoma cell lines, B16F10 (B16) and A375 were inoculated into a DMEM (Dulbecco's Modified Eagle's Medium) culture medium added with 10% FBS (Thermo Fisher Scientific Inc.), 100 unit/ml penicillin, and 100 μg/ml streptomycin, and then cultured in a CO2 incubator (Form a Scientific, Inc.) (37° C., 5%).
The cultured HaCaT, B16F10, and A375 cells were plated onto a 96-well plate at a concentration of 5×10^4 cells/well, and cultured in a CO2 incubator (37° C., 5%) for 24 hours. The cells in respective wells were treated with pachastrissamine and phytosphingosine at various concentrations of 0, 0.9, 1.8, 3.7, 7.5, 10 μg/ml, and cultured in a CO2 incubator (37° C., 5%) for 24 hours. After the culturing, in a state where the culture medium existed, each well was added with 5 mg/ml MTT reagent at a concentration of 20 μl/[…], and cultured in an incubator for 2 hours. After 2 hours, the culture medium was removed, and each well was added with 150 μl of DMSO (dimethyl sulfoxide). Then, a spectrophotometer was used to measure the absorbance at 540 nm, thereby analyzing the cell viability. Herein, the cell viability was represented as a relative value with respect to 100% of cell viability in a control group not treated with pachastrissamine and phytosphingosine.

The test system of another series is FoxO3a. Briefly: Immunocytochemistry of intracellular FoxO3a distribution. Type of series: cell-based. The procedure: In order to carry out Immunocytochemistry analysis, cells were transferred to chamber slides, and cultured in a CO2 incubator (37° C., 5%) for 24 hours. After about 12 hours of serum starvation, the cultured cell lines were treated with 10 μg/ml of pachastrissamine for 24 hours. The cell lines treated with pachastrissamine were fixed with 100% methanol, and washed with PBS. Then, in order to make the cells permeable, the cell lines were reacted in a 0.5% Triton X-100 and washed with a PBS solution. Then, by using a solution including 10% FBS and 0.1% gelatin, blocking was carried out at room temperature for 1 hour, and FoxO3a antibody was reacted at 4° C. for 12 hours. After the reaction, the cells were washed with PBS, reacted with a secondary antibody of Alex488 (invitrogen) at room temperature, and washed with PBS again. Finally, for nuclear stain, the cells were reacted with DAPI and washed with PBS. The slide was washed with PBS, attached with glass coverslip, and analyzed through a microscope.
After the cells with or without over-expression of beta-catenin were treated with pachastrissamine, the distribution of intracellular FoxO3a protein was determined in the same manner as described in Example 4-3.

On to `CCCCCCCCCCCCCC[C@@H]1OC[C@H](N)[C@@H]1O` [pachastrissamine], for which, in series [1], the “malignant melanoma metastasis to the lung compared to control group” value is reported as “significantly inhibited”. Besides, in the series on ERK and FoxO3a, the “degree of binding between ERK and FoxO3a” value is listed as “significantly decreased”. For the same compound, in the series with MEK, the “MEK activity (upper signal of ERK)” value is reported as “inhibition effect on MEK”. The “cell viability (number of surviving cells) with increasing concentration” value in series [2] (0, 0.9, 1.8, 3.7, 7.5, 10 μg/ml) was “the number of surviving cells was reduced”. Further, the “cytotoxicity compared with phytosphingosine” value in series [2] was “lower cytotoxicity than phytosphingosine”. Besides, the “movement of FoxO3a protein to a nucleus” value in the series with FoxO3a (10 μg/ml, 24 hours, FIG. 4D) is “significantly increased”. For the same compound, the “distribution of intracellular FoxO3a protein in cells with over-expression of beta-catenin” value in the series on FoxO3a (HaCaT with over-expression of beta-catenin (FoxO3a mostly in cytosol before treatment), FIG. 5D) was “moved into the nucleus again”.
